Measured values from US20260158020A1, “COMPOSITIONS AND USES THEREOF” (BENEVOLENTAI CAMBRIDGE LIMITED, priority 2020, published 2026).
Like-named read-outs stand apart in the source and are kept apart here.

Assays:
[1] = cited from earlier work
other PDE family members [2] = conditions: cited from earlier work
PDE10A [3] = target: T1, PDE10A (Homo sapiens, UniProt Q9Y233); conditions: cited from earlier work
PDE10A [4] = target: T1, PDE10A; conditions: read-out: binding affinity (Kd) PDE10A; cited from earlier work
[5] = tested on: animals, conditioned avoidance response model; conditions: cited from earlier work
human PDE10 = human PDE10 (Homo sapiens, UniProt Q9Y233); conditions: cited from earlier work
[6] = tested on: rat models relevant to schizophrenia; conditions: 0.1-0.3 mg/kg; cited from earlier work
[7] = tested on: rat models relevant to schizophrenia; conditions: 0.1-0.3 mg/kg; cited from earlier work; remark: listed apart in the source
rat PDE10 = target: T2, rat PDE10 (Rattus norvegicus, UniProt Q9QYJ6); conditions: cited from earlier work
T2 sequence (Q9QYJ6 1-794): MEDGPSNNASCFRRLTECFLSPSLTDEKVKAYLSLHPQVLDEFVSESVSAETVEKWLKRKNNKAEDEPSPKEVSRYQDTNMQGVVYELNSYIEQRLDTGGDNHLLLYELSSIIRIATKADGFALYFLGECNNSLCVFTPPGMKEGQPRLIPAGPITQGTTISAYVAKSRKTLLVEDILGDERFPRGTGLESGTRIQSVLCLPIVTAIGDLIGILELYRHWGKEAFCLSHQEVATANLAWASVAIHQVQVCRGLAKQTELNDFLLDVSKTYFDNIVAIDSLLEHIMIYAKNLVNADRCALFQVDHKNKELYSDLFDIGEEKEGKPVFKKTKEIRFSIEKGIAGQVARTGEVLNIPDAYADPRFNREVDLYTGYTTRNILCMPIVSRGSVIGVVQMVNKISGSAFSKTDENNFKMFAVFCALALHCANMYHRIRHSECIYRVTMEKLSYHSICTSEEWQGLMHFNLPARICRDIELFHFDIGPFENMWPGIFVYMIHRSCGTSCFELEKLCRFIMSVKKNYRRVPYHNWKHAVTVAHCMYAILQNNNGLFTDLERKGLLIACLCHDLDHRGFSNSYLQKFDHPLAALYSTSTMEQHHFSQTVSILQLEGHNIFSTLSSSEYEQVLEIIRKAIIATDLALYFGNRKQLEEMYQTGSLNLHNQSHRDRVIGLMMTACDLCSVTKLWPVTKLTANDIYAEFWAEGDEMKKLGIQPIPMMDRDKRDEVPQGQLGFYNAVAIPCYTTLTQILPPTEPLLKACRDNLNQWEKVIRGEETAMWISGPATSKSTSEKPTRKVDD

[8] = tested on: inflamed colonic mucosa from ulcerative colitis patients; experiment: Ex-vivo culture of colon biopsies from ulcerative colitis patients, cytokine release (Method 1); type: cell-based, human; conditions: colon biopsy samples from two UC patients, vs DMSO vehicle, PF-02545920 0.1 and 1 μM, TAK-063 1 μM, FIGS. 4 and 5
Experimental: The effect of selective PDE10 inhibition was tested on inflamed colonic mucosa from ulcerative colitis patients taken during routine endoscopy (Method 1 detailed below). These samples retain a disease phenotype in ex-vivo culture and secrete high basal levels of inflammatory cytokines. The effect of selective PDE10 inhibition on levels of the inflammatory cytokines IL-8 and IL-6 released from these tissue samples was measured.
These colon biopsies retain an inflammatory phenotype and secrete high levels of inflammatory cytokines in ex-vivo culture. […] The doses tested of each inhibitor will result in selective PDE10A inhibition over the other PDE family members.
Biopsy tissue was obtained from inflamed colonic mucosa from ulcerative colitis patients during routine endoscopy. Ex-vivo biopsy cultures for the analysis of inflammatory cytokine biomarkers were run as previously described (Vossenkämper A. et al. A CD3-specific antibody reduces cytokine production and alters phosphoprotein profiles in intestinal tissues from patients with inflammatory bowel disease. Gastroenterology, 2014, 147, 172-183). […] Supernatants collected at the end of the experiment were snap-frozen and stored at −70° C. For the measurement of cytokines, the frozen culture supernatants were thawed and analysed for levels of the inflammatory cytokines using Luminex cytokine assay kits (R&D Systems) and an R&D Systems MAGPIX® analyser. Mean values±SDs were calculated for the levels of spontaneous cytokine production measured in biopsy culture supernatants from each treatment group.

[9] = tested on: inflamed colonic mucosa from treatment-refractory ulcerative colitis patients; experiment: Ex-vivo culture of inflamed colon tissue from surgical resection of treatment-refractory UC patients, TNFα release (Method 2); type: cell-based, human; conditions: colon samples from two treatment-refractory UC patients, with SEB, about 18 h, vs DMSO vehicle; printed 1 M (FIG. 6: 1 μM)
[10] = tested on: isolated human neutrophils; experiment: In vitro assay of IL-8 neutrophil activation; type: cell-based; conditions: FIG. 3
other PDE family members [11] = tested on: T3, other PDE family members; conditions: isolated enzyme biochemical assays; literature (Grauer 2009; Kunitomo 2014); read-out: IC50s for other PDE family members; cited from earlier work
T3 construct: other: isolated enzyme biochemical assays; literature (Grauer 2009; Kunitomo 2014)

rats = conditions: cited from earlier work
[12] = oral, rodents; cited from earlier work
[13] = tested on: rodents with induced memory deficits; conditions: oral, 0.1 to 3 mg/kg; cited from earlier work

T1 sequence (Q9Y233 whole entry): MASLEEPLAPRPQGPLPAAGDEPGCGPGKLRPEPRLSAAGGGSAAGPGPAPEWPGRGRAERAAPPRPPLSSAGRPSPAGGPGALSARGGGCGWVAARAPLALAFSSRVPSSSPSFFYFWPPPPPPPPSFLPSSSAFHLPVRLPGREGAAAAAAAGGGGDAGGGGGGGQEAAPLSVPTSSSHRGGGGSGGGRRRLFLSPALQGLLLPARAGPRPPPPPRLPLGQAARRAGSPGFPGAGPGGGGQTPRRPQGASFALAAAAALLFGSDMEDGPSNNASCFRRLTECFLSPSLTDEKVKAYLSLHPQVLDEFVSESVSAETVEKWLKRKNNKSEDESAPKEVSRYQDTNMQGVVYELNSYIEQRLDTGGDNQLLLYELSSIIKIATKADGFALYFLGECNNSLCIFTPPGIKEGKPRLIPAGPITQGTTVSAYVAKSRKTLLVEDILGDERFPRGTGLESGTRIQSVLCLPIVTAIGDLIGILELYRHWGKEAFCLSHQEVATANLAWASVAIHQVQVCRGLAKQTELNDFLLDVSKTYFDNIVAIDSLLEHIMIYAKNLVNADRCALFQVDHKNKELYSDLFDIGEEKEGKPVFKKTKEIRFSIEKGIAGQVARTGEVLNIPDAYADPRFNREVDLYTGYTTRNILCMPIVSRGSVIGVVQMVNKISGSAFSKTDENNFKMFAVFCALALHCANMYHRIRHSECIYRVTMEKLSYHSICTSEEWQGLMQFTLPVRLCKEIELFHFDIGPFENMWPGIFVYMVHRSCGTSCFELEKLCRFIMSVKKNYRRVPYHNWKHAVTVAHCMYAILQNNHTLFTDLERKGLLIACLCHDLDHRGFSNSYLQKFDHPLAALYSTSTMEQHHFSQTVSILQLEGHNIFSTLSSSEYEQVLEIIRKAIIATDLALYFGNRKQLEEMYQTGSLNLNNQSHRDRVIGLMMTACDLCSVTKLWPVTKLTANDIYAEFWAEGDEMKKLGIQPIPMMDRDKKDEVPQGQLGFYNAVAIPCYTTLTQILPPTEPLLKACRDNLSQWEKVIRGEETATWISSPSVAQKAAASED
Chain of human PDE10 (Q9Y233 whole entry): as above

Structure (SMILES): CC(=O)N1CCC(c2nccnc2Oc2ccc(C(=O)c3nc4ccccc4[nH]3)cc2)CC1 [AMG-579, 1-[4-[3-[4-(1H-benzimidazole-2-carbonyl)phenoxy]pyrazin-2-yl]piperidin-1-yl]ethanone]
- oral bioavailability [1]: orally bioavailable
- IC50 (other PDE family members [2]; read-out: IC50 against all other PDE isoforms): > 30000 nM

Structure (SMILES): CCNC(=O)c1sc(Nc2nc(Cl)cc(NCc3cccnc3)n2)nc1C [BMS-843496, 2-((4-chloro-6-((pyridin-3-ylmethyl)amino)pyrimidin-2-yl)amino)-N-ethyl-4-methylthiazole-5-carboxamide]
- selectivity over other PDE families / family members / phosphodiesterases (other PDE family members [2]): > 100 fold
- IC50 (PDE10A [3]): 2.11 nM
- Kd (PDE10A [4]): 0.15 nM
- antipsychotic effects, conditioned avoidance response model [5]: correlated with antipsychotic effects

Structure (SMILES): Cc1ncc(C)n2nc(/C=C/c3nc(N4CCCC4)cc(N4CCOCC4)n3)nc12 [PDM-042, (E)-4-(2-(2-(5,8-dimethyl-[1,2,4]triazolo[1,5-a]pyrazin-2-yl)vinyl)-6-(pyrrolidin-1-yl)pyrimidin-4-yl) morpholine]
- IC50 (human PDE10): < 1 nM
- MK-801-induced hyperlocomotion [6]: significantly antagonized
- spontaneous locomotor activity [6]: without affecting
- conditioned avoidance response [7]: attenuated
- IC50 (rat PDE10): < 1 nM
- selectivity over other PDE families / family members / phosphodiesterases (other PDE family members [2]): more than 1000 fold

Structure (SMILES): Cn1cc(-c2ccncc2)c(-c2ccc(OCc3ccc4ccccc4n3)cc2)n1 [PF-02545920, 2-[[4-(1-methyl-4-pyridin-4-ylpyrazol-3-yl)phenoxy]methyl]quinolone]
- secreted levels of IL-6 [8]: significantly reduced
- secreted levels of IL-8 [8]: significantly reduced
- secreted levels of TNFα [9]: significantly reduced
- IL-8 induced neutrophil activation [10]: dose dependently inhibited
- IC50 (other PDE family members [11]): > 1000 nM

Structure (SMILES): COc1cc2ncnc(N3CC[C@@H](Oc4cnc5ccccc5n4)C3)c2cc1OC [PQ-10, 6,7-dimethoxy-4-[(3R)-3-quinoxalin-2-yloxypyrrolidin-1-yl]quinazoline]
- basic auditory information processing (rats): enhances
- brain penetration [12]: highly brain penetrant
- induced memory defects [13]: reversed

Structure (SMILES): COc1cn(-c2ccc(-n3cccn3)cc2F)nc(-c2ccnn2-c2ccccc2)c1=O [TAK-063, 1-(2-fluoro-4-pyrazol-1-ylphenyl)-5-methoxy-3-(2-phenylpyrazol-3-yl)pyridazin-4-one]
- secreted levels of IL-6 [8]: significantly reduced
- secreted levels of IL-8 [8]: significantly reduced
- IC50 (other PDE family members [11]): > 5000 nM
